Measurements reported in patent US6552080B1, “Fungicidal compounds having a fluorovinyl-or fluoropropenyl-oxyphenyloxime moiety and process for the preparation thereof” (Korea Research Institute of Chemical Technology, priority 1999, dated 2003).
Read-outs that look alike come from different tables or passages of the source.

What was measured:
[1] = tested on: Pyricularia oryzae Carvara KA301; assay type: in vivo; settings: for RCV (Fungicidal Activities, C.V.): Rice Blast
[2] = tested on: Botrytis cinerae; test: Fungicidal activity against Cucumber Gray Mold Rot (CGM) disease; assay type: in vivo; settings: for CGM (Fungicidal Activities, C.V.): Cucumber Gray Mold Rot, concentration 50 ppm
Experimental: Botrytis cinerae, which was isolated from cucumber infected thereby, was inoculated on a PDA agar medium and cultured under a 12L/12D cycle at 25° C. for 15 days to form spore. The spores were scraped, filtered through a gauze and then suspended in potato dextrose liquid medium at a concentration of 1×10^6 spore/ml. The spore suspension was sprayed on a cucumber plant having one leaf. The cucumber plant was held in a humidified room at 20° C. for 3 days. L.A. on a leaf was measured to calculate an C.V.

[3] = tested on: Phytophthora infestans; assay type: in vivo; settings: for TLB (Fungicidal Activities, C.V.): Tomato Late Blight
[4] = tested on: Puccinia recondita; test: Fungicidal activity against Wheat Leaf Rust (WLR) disease; assay type: in vivo; settings: for WLR (Fungicidal Activities, C.V.): Wheat Leaf Rust
[5] = tested on: Erysiphae graminis; test: Fungicidal activity against Barley Powdery Mildew (BPM) disease; assay type: in vivo; settings: for BPM (Fungicidal Activities, C.V.): Barley Powdery Mildew
[6] = tested on: Rhizoctonia solani AG-1; test: Fungicidal activity against Rice Sheath Blight (RSB) disease; settings: for RSB (Fungicidal Activities, C.V.): Rice Sheath Blight

Compound	RCV (Fungicidal Activities, C.V.) ([1]; concentration 2 ppm)	RCV (Fungicidal Activities, C.V.) ([1]; concentration 50 ppm)	CGM (Fungicidal Activities, C.V.) [2]	TLB (Fungicidal Activities, C.V.) ([3]; concentration 50 ppm)	WLR (Fungicidal Activities, C.V.) ([4]; concentration 2 ppm)	WLR (Fungicidal Activities, C.V.) ([4]; concentration 50 ppm)	BPM (Fungicidal Activities, C.V.) ([5]; concentration 2 ppm)	BPM (Fungicidal Activities, C.V.) ([5]; concentration 50 ppm)	RSB (Fungicidal Activities, C.V.) ([6]; concentration 2 ppm)	RSB (Fungicidal Activities, C.V.) ([6]; concentration 50 ppm)	RCV (Fungicidal Activities, C.V.) ([1]; concentration 10 ppm)	WLR (Fungicidal Activities, C.V.) ([4]; concentration 10 ppm)	BPM (Fungicidal Activities, C.V.) ([5]; concentration 10 ppm)	also measured
CNC(=O)C(=NOC)c1ccccc1CON=C(C)c1cccc(OC(F)=Cc2ccc(F)cc2)c1 [Compound 82]	100%	96%	82%	84%	100%	100%	100%	100%	55%	85%	–	–	–	TLB (Fungicidal Activities, C.V.) ([3]; concentration 2 ppm): 85%
CCc1ccc(C=C(F)Oc2cccc(C(C)=NOCc3ccccc3C(=COC)C(=O)OC)c2)cc1 [Compound 45]	41%	97%	17%	85%	95%	100%	99%	100%	–	65%	93%	100%	100%	–
CNC(=O)C(=NOC)c1ccccc1CON=Cc1cccc(OC(F)=C(c2cccc(C)c2)C(F)(F)F)c1 [Compound 140]	86%	97%	0%	0%	0%	100%	–	86%	–	64%	–	–	–	–
COC=C(C(=O)OC)c1ccccc1CON=C(C)c1cccc(OC(F)=Cc2ccc3ccccc3c2)c1 [Compound 56]	25%	95%	5%	57%	95%	100%	100%	100%	–	70%	80%	100%	100%	–
COC=C(C(=O)OC)c1ccccc1CON=C(C)c1cccc(OC(F)=C(c2cc(Cl)cc(Cl)c2)C(F)(F)F)c1 [Compound 164]	–	–	–	–	–	–	–	–	–	–	–	–	–	Fungicidal Activities RCV (C.V.) ([1]; 50 ppm): 41%; Fungicidal Activities CGM (C.V.) ([2]; 50 ppm): 36%; Fungicidal Activities TLB (C.V.) ([3]; 50 ppm): 0%; Fungicidal Activities WLR (C.V.) ([4]; 2 ppm): 60%; Fungicidal Activities WLR (C.V.) ([4]; 10 ppm): 95%; Fungicidal Activities WLR (C.V.) ([4]; 50 ppm): 96%; Fungicidal Activities BPM (C.V.) ([5]; 2 ppm): 71%; Fungicidal Activities BPM (C.V.) ([5]; 10 ppm): 99%; Fungicidal Activities BPM (C.V.) ([5]; 50 ppm): 100%; Fungicidal Activities RSB (C.V.) ([6]; 50 ppm): 20%
CON=C(C(=O)OC)c1ccccc1CON=C(C)c1cccc(OC(F)=Cc2ccc(F)cc2)c1 [Compound 74]	100%	100%	72%	56%	99%	100%	100%	100%	25%	100%	–	–	–	TLB (Fungicidal Activities, C.V.) ([3]; concentration 2 ppm): 12%
CON=C(C(=O)OC)c1ccccc1CON=C(C)c1cccc(OC(F)=Cc2cc(C)cc(C)c2)c1 [Compound 68]	100%	100%	56%	20%	99%	100%	100%	100%	30%	100%	100%	100%	100%	RSB (Fungicidal Activities, C.V.) ([6]; concentration 10 ppm): 70%
CNC(=O)C(=NOC)c1ccccc1CON=Cc1cccc(OC(F)=Cc2ccc(F)cc2)c1 [Compound 37]	98%	100%	0%	0%	37%	98%	42%	100%	–	29%	–	–	–	–
